Results published in patent publication US20170059568A1, “Identification of JC viral epitopes by cytotoxic T lymphocytes in healthy individuals and their use in assays” (JANSSEN PHARMACEUTICA NV, priority 2014, published 2017).

Assays:
Type in all cases: cell-based, human
CD8+-enriched PBMC [1] = assay: Direct ex vivo IFN-gamma ELISPOT validation of the top 10 peptides and their pool in 20 donors; settings: for donors responding (T cell response): 20 selected donors covering 8 HLA allotypes
Protocol: The peptide pool of top 10 peptides originating from the initial screening (JCPyV pool) was solubilized in DMSO at 12.5 mg/ml per peptide with a final working concentration of the pool around 10 μM.
(§1) To enrich for the CD8+ T cell population, CD4+ cells were depleted from the PBMC using magnetic cell separation, according to the manufacturer's instructions (StemCell Technologies, Vancouver, Canada).
(§2) PBMC from selected subjects were thawed, washed and seeded onto anti-IFN-γ coated 96-well plates (Mabtech, Sweden) at 2.5*10^5 or 5*10^5 cells per well. Test antigens were diluted in the assay media and added to the cells at the specified doses. Assay medium containing DMSO, and assay medium alone were included as blank conditions for all donors. Cells were incubated for 16-18 hours in a humidified atmosphere at 37° C., 5% CO2. After the incubation period the cells were washed from the plates and an in-house spot development procedure was used to determine IFN-γ production (Lonza, Cambridge, UK). Upon completion of spot development, the plates were scanned, counted and QC analysis conducted using the ImmunoSpot Analyzer (Cellular Technologies Ltd, Cleveland, US).
(§3) The spot count per well (i.e. the number of IFN-γ secreting cells per well) in response to each test antigen was analyzed. Mean values were calculated from the triplicate wells for each test condition. Data analysis was then carried out using the distribution free resampling method (DFR). The DFR method compares each test condition against the blank for each donor and calculates whether the difference is statistically significant (p<0.1).
(§4) The ELISPOT with CD8+-enriched PBMC (5*10^5 cells per well) with the standard ELISPOT assay medium without overnight resting period was used in further experiments.
To verify whether the newly identified epitopes were really immunodominant, the 10 newly identified peptides were tested individually or as a peptide pool in the optimized CD8+ T cell enriched direct ex vivo ELISPOT assay. Twenty subjects were selected which cover 8 of the 10 HLA allotypes that were initially selected. […]

CD8+-enriched PBMC [2] = assay: Direct ex vivo IFN-gamma ELISPOT screening of 98 predicted JCPyV MHC class I peptides in 92 healthy subjects; settings: for Positive Donors (p < 0.1): number of responding donors among about 10 donors of the predicted HLA allotype, 5*10^5 CD8+-enriched PBMC per well; for Positive Donors (p < 0.1) / tested donors/subjects with significant T cell response to the peptide: peptide 10 μM; for tested donors/subjects with significant T cell response to the peptide: initial screening, allotype-specific subjects; for JCPyV-seronegative subjects reacting against the peptide, out of 22: 22 JCPyV VP1 antibody-seronegative subjects with CTL response; for JCPyV-seronegative subjects reacting against the peptide: 22 JCPyV VP1 antibody-seronegative subjects with CTL response (adj p<0.1); for all subjects tested showing a positive response: independent of HLA-type
Protocol: The 9-mer and 10-mer JCPy virus test peptides were synthesized and HPLC purified to >90% (Thermo Fisher Scientific, GmbH). Peptides were solubilized in DMSO and used in ELISPOT (Mabtech, Sweden) at 10 μM.
as §1, §2, §3, §4
All viral protein (VP1, VP2, agnoprotein, common T, large T Antigen (LTAg), and small t Antigen (stAg) from both JCPyV and BKPyV) sequences were scanned for the presence of putative HLA class I restricted epitopes. Profiling is performed at the allotype level for 16A and 12B, i.e. 28 HLA class I receptors in total. […] Therefore, during the further selection of epitopes with high expected immunogenicity potential, the following aspects were considered: high HLA-A and -B impact of epitopes, high promiscuity of epitopes, specificity to JCPyV proteins, potential preference for 9-mer peptides, minimal similarity of epitopes to human proteome sequences, location of epitopes in the JCPyV protein sequences Based on the in silico predictions, 98 peptides of the JCPyV proteins were finally selected, representing potential T cell epitopes for the major HLA class I allotypes in the global population. To test immunogenicity of these 98 peptides the ten most common HLA allotypes were selected, 5 HLA-A and 5 HLA-B allotypes (A*0101, A*0201, A*0301, A*1101, A*2402, B*0702, B*0801, B*1501, B*3501 and B*4001) and for each HLA allotype we aimed to have approximately 10 peptides that gave the strongest signal in Epibase. Alongside, the positive controls (CEF, VP1 peptide pool, and VP1 p100) and negative controls (medium blank and DMSO) were tested. The control peptide pools gave responses in the expected range, in 87% and 60% of all subjects tested, showing a positive response to the CEF and JCPyV VP1 peptide pools, respectively. […] The results for the other proteins can be found in supplementary Table 1 and 2.

CD8+-enriched PBMC [3] = assay: Direct ex vivo IFN-gamma ELISPOT optimization (cell amount, CD8+ enrichment, medium, overnight rest)
Protocol: as §2
The spot count per well (i.e. the number of IFN-γ secreting cells per well) in response to each test antigen was analyzed. Mean values were calculated from the triplicate wells for each test condition. […]
It has been reported that for some viral peptides, the use of serum-free assay medium and overnight resting of the PBMC before stimulation with peptide can increase peptide specific T cell responses. The influence of assay medium and overnight resting of PBMC was evaluated using only CD8+-enriched PBMC from 5 HLA-A*02 subjects and one non-HLA-A*02 subject.

## FESDSPNRDM (JC polyomavirus) [AP00457]
CD8+-enriched PBMC [1]
  donors responding (T cell response): 90%
CD8+-enriched PBMC [2]
  Positive Donors (p < 0.1): 6

## FLRSSPLVWI (JC polyomavirus) [AP00386]
CD8+-enriched PBMC [1]; 20 donors, peptides tested separately and as pool
  donors with significant T cell response out of 20 tested: 20
CD8+-enriched PBMC [1]
  donors responding (T cell response): 100%
CD8+-enriched PBMC [2]
  tested donors/subjects with significant T cell response to the peptide: 80%
  Positive Donors (p < 0.1): 8

## GEAAATIEV (JC polyomavirus) [AP00460]
CD8+-enriched PBMC [2]
  Positive Donors (p < 0.1): 3

## ILMWEAVTL [AP00410]
CD8+-enriched PBMC [2]
  JCPyV-seronegative subjects reacting against the peptide, out of 22: almost all responded
  JCPyV-seronegative subjects reacting against the peptide: 82%
  Positive Donors (p < 0.1): 7
CD8+-enriched PBMC [2]; all 92 subjects
  subjects showing a positive response out of 92 tested: 44
  all subjects tested showing a positive response: 37%
CD8+-enriched PBMC [2]; all 92 subjects, listed as JCPyV VP1 p100 9-mer
  all subjects tested showing a positive response: 48%
CD8+-enriched PBMC [2]; donors with A*0201 and A*2402 allotypes
  significant responses in A*0201 and A*2402 allotypes: 58%
CD8+-enriched PBMC [3]; FIG. 1 condition C: CD8+-enriched PBMC 5*10^5 per well, 3 HLA-A*02 and one non-HLA-A*02 subject
  subjects with significant IFN-γ response (DFR method): two subjects responded
CD8+-enriched PBMC [3]; FIG. 2 condition D: CD8+-enriched PBMC, serum containing medium, no overnight rest, 5 HLA-A*02 and one non-HLA-A*02 subject
  donors with significant IFN-γ response: three of them also responded

## ILMWEAVTLK [AP00388, JCPyV VP1 p100 10-mer]
CD8+-enriched PBMC [2]; A*2402 donors
  potency at inducing CD8+ T cell responses, 10-mer compared with 9-mer: far less potent than the 9-mer

## LTCGNILMW (JC polyomavirus) [AP00367]
CD8+-enriched PBMC [2]
  Positive Donors (p < 0.1): 4

## MAGVAWIHCL (JC polyomavirus) [AP00423]
CD8+-enriched PBMC [2]
  tested donors/subjects with significant T cell response to the peptide: 90%
  Positive Donors (p < 0.1): 9

## RILIFLLEFL (JC polyomavirus) [AP00402]
CD8+-enriched PBMC [2]
  JCPyV-seronegative subjects reacting against the peptide, out of 22: 8
  JCPyV-seronegative subjects reacting against the peptide: 36%
  Positive Donors (p < 0.1): 6

## SAIAQLGYRF (JC polyomavirus) [AP00441]
CD8+-enriched PBMC [2]
  Positive Donors (p < 0.1): 5

## STISQAFWNL (JC polyomavirus) [AP00400]
CD8+-enriched PBMC [2]
  Positive Donors (p < 0.1): 6

## YPISFLLTDL (JC polyomavirus) [AP00377]
CD8+-enriched PBMC [2]
  Positive Donors (p < 0.1): 5
